The target in one assay is cdk4/D (Homo sapiens, UniProt P11802). Briefly: Cyclin-Dependent Kinase 4 (cdk4) Assay. The assay is classed as biochemical. The conditions noted are these: read-out: cdk4/D IC50.
The target of another assay is cdk2/cyclinE (Homo sapiens, UniProt P24941). Nature of the assay: Cyclin-Dependent Kinase Assay cdk2/cyclinE. The note with it: cdk2/E IC50.
The next assay has as its target cdc2/cyclinB (Homo sapiens, UniProt P06493). Briefly: Cyclin-Dependent Kinase Assay cdc2/cyclinB.
For another assay, the target named is Cdk5/p25 (Homo sapiens, UniProt Q00535). Briefly: Cyclin-Dependent Kinase 5 High Throughput Screening (cdk5-HTS) Assay. The note with it: high throughput screen. Type of assay: biochemical. The gist of the method:
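Cdk5/p25 (1.0 μg/mL) phosphorylates GST-RbCOOH (20 μg/mL) in 50 mM Tris pH 7.4 with 10 mM MgCl2 and 20 μM ATP spiked with [γ33P]ATP, 30 min at room temperature. After EDTA stop, substrate captured on glutathione-coated plates; 33P incorporation counted by scintillation; IC50 determined.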

In a further assay the target is cdk2/cyclinA (Homo sapiens, UniProt P24941). Briefly: Cyclin-Dependent Kinase Assay cdk2/cyclinA. The conditions noted are these: cdk2/A IC50.

The text below walks through data of patent US20040224958A1, “Pyridopyrimidinone derivatives for treatment of neurodegenerative disease” (priority 2000, published 2004).

SMILES strings stand for the structures.

cdk4/D, sequence (P11802 whole entry): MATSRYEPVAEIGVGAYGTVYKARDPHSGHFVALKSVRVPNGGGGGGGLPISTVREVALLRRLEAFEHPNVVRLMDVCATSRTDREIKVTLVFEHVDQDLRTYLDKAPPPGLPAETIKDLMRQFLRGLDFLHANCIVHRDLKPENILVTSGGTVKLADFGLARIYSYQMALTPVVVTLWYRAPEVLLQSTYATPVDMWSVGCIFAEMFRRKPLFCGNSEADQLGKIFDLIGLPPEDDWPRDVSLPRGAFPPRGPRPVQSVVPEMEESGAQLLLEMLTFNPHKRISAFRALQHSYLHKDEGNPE
cdk4/D, sequence (P24385 whole entry, further chain): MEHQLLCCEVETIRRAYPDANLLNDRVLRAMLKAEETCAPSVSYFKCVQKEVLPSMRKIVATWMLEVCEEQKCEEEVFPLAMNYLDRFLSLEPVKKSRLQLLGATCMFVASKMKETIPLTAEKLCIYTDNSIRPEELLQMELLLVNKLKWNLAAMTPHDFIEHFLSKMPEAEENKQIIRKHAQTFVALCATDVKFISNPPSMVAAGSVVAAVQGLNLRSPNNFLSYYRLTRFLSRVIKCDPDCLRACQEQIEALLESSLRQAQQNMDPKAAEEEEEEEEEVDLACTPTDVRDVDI
cdc2/cyclinB, sequence (P06493 whole entry): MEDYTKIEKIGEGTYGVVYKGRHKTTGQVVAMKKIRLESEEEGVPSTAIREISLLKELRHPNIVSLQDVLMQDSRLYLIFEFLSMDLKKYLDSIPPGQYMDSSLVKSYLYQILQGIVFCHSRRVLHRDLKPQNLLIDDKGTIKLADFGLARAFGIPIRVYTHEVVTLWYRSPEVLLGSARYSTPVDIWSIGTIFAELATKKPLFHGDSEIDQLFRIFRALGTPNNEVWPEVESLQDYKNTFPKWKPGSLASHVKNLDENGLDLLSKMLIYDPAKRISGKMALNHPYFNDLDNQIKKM
cdc2/cyclinB, sequence (P14635 whole entry, further chain): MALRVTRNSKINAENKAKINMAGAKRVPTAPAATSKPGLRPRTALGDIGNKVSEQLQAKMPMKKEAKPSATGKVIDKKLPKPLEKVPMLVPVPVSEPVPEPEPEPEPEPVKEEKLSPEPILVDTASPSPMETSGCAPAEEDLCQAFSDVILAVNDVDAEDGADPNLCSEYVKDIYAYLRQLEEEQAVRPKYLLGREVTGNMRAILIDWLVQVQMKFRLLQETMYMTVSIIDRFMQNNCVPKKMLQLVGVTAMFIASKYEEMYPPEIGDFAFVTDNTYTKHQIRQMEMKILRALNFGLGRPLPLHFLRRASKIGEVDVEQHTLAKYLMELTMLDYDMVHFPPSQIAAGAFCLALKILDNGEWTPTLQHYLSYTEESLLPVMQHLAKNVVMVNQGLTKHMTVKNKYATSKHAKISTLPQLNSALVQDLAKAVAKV

On to `CCCn1c(=O)ccc2cnc(Nc3ccc(C)c(F)c3)nc21` [Example 376, 2-(3-Fluoro-4-methyl-phenylamino)-8-propyl-8H-pyrido[2,3-d]pyrimidin-7-one], for which the IC50 at cdk4/D came to 380 nM; against cdk2/cyclinE it was 400 nM; at cdc2/cyclinB, 275 nM; against Cdk5/p25, 131 nM; on cdk2/cyclinA, 1180 nM.
As to `CCCCn1c(=O)ccc2cnc(Nc3ccc(C)c(C)c3)nc21` [Example 377, 8-Butyl-2-(3,4-dimethyl-phenylamino)-8H-pyrido[2,3-d]pyrimidin-7-one], the IC50 on cdk4/D was 510 nM; at cdk2/cyclinE, 228 nM; at cdc2/cyclinB, 313 nM; against Cdk5/p25, 201 nM; at cdk2/cyclinA, 1100 nM.
On the same counts, the results for `CCCCn1c(=O)ccc2cnc(Nc3ccc4[nH]ccc4c3)nc21` [Example 378, 8-Butyl-2-(1H-indol-5-ylamino)-8H-pyrido[2,3-d]pyrimidin-7-one] are 97.5 nM, 86 nM, 150 nM, 96.5 nM and 340 nM.
Take `CCCCn1c(=O)ccc2cnc(Nc3ccc4[nH]ncc4c3)nc21` [Example 379, 8-Butyl-2-(1H-indazol-5-ylamino)-8H-pyrido[2,3-d]pyrimidin-7-one]: the IC50 on cdk4/D is 140 nM; at cdk2/cyclinE, 27.3 nM; against cdc2/cyclinB, 43 nM; against Cdk5/p25, 46.5 nM; on cdk2/cyclinA, 84 nM.
In the same order, the values of `CCCCn1c(=O)ccc2cnc(Nc3ccc4[nH]nnc4c3)nc21` [Example 380, 2-(1H-Benzotriazol-5-ylamino)-8-butyl-8H-pyrido[2,3-d]pyrimidin-7-one] are 285 nM, 26 nM, 59 nM, 32.5 nM and 83 nM.
In the same order, the values of `CCCCn1c(=O)ccc2cnc(Nc3ccc(NC(=O)OC(C)(C)C)cc3)nc21` [Example 381, [4-(8-Butyl-7-oxo-7,8-dihydro-pyrido[2,3-d]pyrimidin-2-ylamino)-phenyl]-carbamic acid tert-butyl ester] are 400 nM, 133 nM, 150 nM, 205 nM and 515 nM.
On the same counts, the results for `CCCCn1c(=O)ccc2cnc(Nc3ccc(O)cc3F)nc21` [Example 382, 8-Butyl-2-(2-fluoro-4-hydroxy-phenylamino)-8H-pyrido[2,3-d]pyrimidin-7-one] are 670 nM, 320 nM, 1300 nM, 590 nM and 1550 nM.
Regarding `CCCCn1c(=O)ccc2cnc(Nc3ccc(O)c(Cl)c3)nc21` [Example 383, 8-Butyl-2-(3-chloro-4-hydroxy-phenylamino)-8H-pyrido[2,3-d]pyrimidin-7-one], the IC50 on cdk4/D turned out to be 160 nM; at cdk2/cyclinE, 25.3 nM; against cdc2/cyclinB, 45.5 nM; at Cdk5/p25 it was 46.5 nM; against cdk2/cyclinA, 96.5 nM.
In the same order, the values of `CCCCn1c(=O)ccc2cnc(Nc3cc(Cl)c(O)c(Cl)c3)nc21` [Example 384, 8-Butyl-2-(3,5-dichloro-4-hydroxy-phenylamino)-8H-pyrido[2,3-d]pyrimidin-7-one] are 1130 nM, 25.7 nM, 115 nM, 91.5 nM and 98.5 nM.
In the same order, the values of `CCCCn1c(=O)ccc2cnc(Nc3ccc(OC)cc3)nc21` [Example 385, 8-Butyl-2-(4-methoxy-phenylamino)-8H-pyrido[2,3-d]pyrimidin-7-one] are 1140 nM, 150 nM, 155 nM, 130 nM and 320 nM.
In the same order, the values of `CCCCn1c(=O)ccc2cnc(Nc3ccc(OC)c(OC)c3)nc21` [Example 386, 8-Butyl-2-(3,4-dimethoxy-phenylamino)-8H-pyrido[2,3-d]pyrimidin-7-one] are 620 nM, 90.7 nM, 83 nM, 23.5 nM and 200 nM.
For the molecule `CCCCn1c(=O)ccc2cnc(Nc3ccc(F)cc3)nc21` [Example 387, 8-Butyl-2-(4-fluoro-phenylamino)-8H-pyrido[2,3-d]pyrimidin-7-one], the IC50 at cdk4/D came out at 285 nM; at cdk2/cyclinE it was 80 nM; at cdc2/cyclinB, 128 nM; against Cdk5/p25, 108 nM; against cdk2/cyclinA, 160 nM.
On the same counts, the results for `CCCCn1c(=O)ccc2cnc(Nc3ccc(Cl)c(C)c3)nc21` [Example 388, 8-Butyl-2-(4-chloro-3-methyl-phenylamino)-8H-pyrido[2,3-d]pyrimidin-7-one] are 310 nM, 100 nM, 200 nM, 110 nM and 690 nM.
For `CCCCn1c(=O)ccc2cnc(Nc3ccc(F)c(C(F)(F)F)c3)nc21` [Example 390, 8-Butyl-2-(4-fluoro-3-trifluoromethyl-phenylamino)-8H-pyrido[2,3-d]pyrimidin-7-one], the IC50 at cdk4/D was determined as 1100 nM; at cdk2/cyclinE it was 85 nM; at cdc2/cyclinB, 220 nM; at Cdk5/p25, 84 nM; against cdk2/cyclinA, 470 nM.
On the same counts, the results for `CCCCn1c(=O)ccc2cnc(Nc3ccc(F)c(C)c3)nc21` [Example 392, 8-Butyl-2-(4-fluoro-3-methyl-phenylamino)-8H-pyrido[2,3-d]pyrimidin-7-one] are 760 nM, 77 nM, 140 nM, 110 nM and 360 nM.
On the same counts, the results for `CCCCn1c(=O)ccc2cnc(Nc3ccc(S(N)(=O)=O)cc3)nc21` [Example 393, 4-(8-Butyl-7-oxo-7,8-dihydro-pyrido[2,3-d]pyrimidin-2-ylamino)-benzenesulfonamide] are 180 nM, 11 nM, 45 nM, 9.7 nM and 34 nM.
On the same counts, the results for `CCCCn1c(=O)ccc2cnc(Nc3ccc(OC)c(F)c3)nc21` [Example 394, 8-Butyl-2-(3-fluoro-4-methoxy-phenylamino)-8H-pyrido[2,3-d]pyrimidin-7-one] are 120 nM, 120 nM, 360 nM, 150 nM and 340 nM.
In the case of `CCCCn1c(=O)ccc2cnc(Nc3ccc(C#N)c(NC(C)=O)c3)nc21` [Example 395, N-[5-(8-Butyl-7-oxo-7,8-dihydro-pyrido[2,3-d]pyrimidin-2-ylamino)-2-cyano-phenyl]-acetamide], the IC50 at cdk4/D was found to be 90 nM; on cdk2/cyclinE, 85 nM; at cdc2/cyclinB it was 220 nM; against Cdk5/p25 it was 91 nM; against cdk2/cyclinA it was 340 nM.
On the same counts, the results for `CCCCn1c(=O)ccc2cnc(Nc3cc(OC)cc(C(F)(F)F)c3)nc21` [Example 396, 8-Butyl-2-(3-methoxy-5-trifluoromethyl-phenylamino)-8H-pyrido[2,3-d]pyrimidin-7-one] are 1100 nM, 300 nM, 600 nM, 590 nM and 2600 nM.
